The results in this text go back to ChEMBL document CHEMBL4251581, “Synthesis and antimycobacterial activity of triterpeni≿ A-ring azepanes” (Eur J Med Chem, 2018).

Experiment [1] deals with Mycobacterium tuberculosis. The experiment is described as follows: Antimycobacterial activity against Mycobacterium tuberculosis H37Rv ATCC 27294 by BACTEC-460 radiometric susceptibility assay. In kind it is functional.
Experiment [2] has as its system Mycobacterium tuberculosis. The experiment is described as follows: Antimycobacterial activity against Mycobacterium tuberculosis H37Rv. In kind it is functional, organism-based.
Experiment [3] relates to Mycobacterium tuberculosis. In words: Antimycobacterial activity against Mycobacterium tuberculosis H37Rv after 7 days by microplate alamar blue assay. In kind it is functional. The following applies: 168 h. (In general: Resazurin is reduced to fluorescent resorufin, in cell work by metabolically active cells.)
Experiment [4] concerns Mycobacterium tuberculosis. In words: Antimycobacterial activity against Mycobacterium tuberculosis H37Ra by microplate alamar blue assay. In kind it is functional.
The test system of experiment [5] is Mycobacterium tuberculosis. The experiment is described as follows: Antimycobacterial activity against Mycobacterium tuberculosis H37Rv ATCC 27294 after 5 days by microplate alamar blue assay. The experiment is classed as functional. As to conditions: H37Rv ATCC 27294, 120 h.
Experiment [6] concerns Mycobacterium tuberculosis. In words: Antimycobacterial activity against Mycobacterium tuberculosis H37Rv ATCC 27294 by microplate alamar blue assay. The experiment is classed as functional.
The subject of experiment [7] is Mycobacterium tuberculosis. The experiment is described as follows: Bactericidal activity against Mycobacterium tuberculosis H37Rv. The experiment is classed as functional.
Experiment [8] has as its system Mycobacterium tuberculosis. In words: Antimycobacterial activity against p-aminosalicyclic acid-resistant Mycobacterium tuberculosis H37Rv ATCC 35821. In kind it is functional.

SMILES strings stand for the structures. In brackets after ≈: the same amount, converted by molar mass.

For orientation: MIC99 means an inhibitory concentration at the 99% level, which refers to growth in some studies and to a panel of isolates in others. Take `C[C@H]1[C@H](C)CC[C@]2(C(=O)O)CC[C@]3(C)C(=CC[C@@H]4[C@@]5(C)CC[C@H](O)C(C)(C)[C@@H]5CC[C@]43C)[C@H]12` [URSOLIC ACID]: the values for the MIC99 in experiment [1] and in experiment [2] were 50 mg/L (≈ 109 µM) and 100 mg/L (≈ 219 µM), respectively.
What is called MIC90 is an inhibitory concentration at the 90% level, which refers to growth in some studies and to a panel of isolates in others. Low values mean greater potency, high ones weaker potency. In general, MIC refers to the lowest concentration that inhibits growth of the organism. Lower therefore signals inhibition by little substance. Molecule `C=C(C)[C@@H]1CC[C@]2(C(=O)O)CC[C@]3(C)[C@H](CC[C@@H]4[C@@]5(C)CC[C@H](O)C(C)(C)[C@@H]5CC[C@]43C)[C@@H]12` [BETULINIC ACID] returned an MIC90 in experiment [3] of 25 mg/L (≈ 54.7 µM). For the same molecule, the values for the MIC in experiment [4], in experiment [5] and in experiment [6] were 50 mg/L (≈ 109 µM), more than 100 mg/L and 62 mg/L (≈ 136 µM), respectively.
A word on the MBC: it is the smallest concentration meeting the test's criterion for killing. By IC50 is commonly meant the point on the concentration scale where inhibition reaches its midpoint. Higher therefore signals a need for much substance. The term IC90 denotes the concentration needed for an effect of 90%. `C=C(C)[C@@H]1CC[C@]2(CO)CC[C@]3(C)[C@H](CC[C@@H]4[C@@]5(C)CCCNC(C)(C)[C@@H]5CC[C@]43C)[C@@H]12` returned an MBC in experiment [7] of 10 mg/L (≈ 22.6 µM). This molecule also came in with an MIC in experiment [8] of 5 mg/L (≈ 11.3 µM). For the same molecule, in experiment [2], 10.9 µM corresponded to half-maximal inhibition (IC50), the IC90 came out at 12.4 µM and 10 µM (≈ 4.42 µg/mL) was the least that counted as inhibitory (MIC).
The molecule `C=C(C)[C@@H]1CC[C@]2(C)CC[C@]3(C)[C@H](CC[C@@H]4[C@@]5(C)CC[C@H](O)C(C)(C)[C@@H]5CC[C@]43C)[C@@H]12` [LUPEOL] displayed an MIC90 in experiment [6] of more than 64 mg/L.
